Measured values from US20260132103A1, “Bumetanide Derivatives for the Therapy of Stroke and Other Neurological Diseases/Disorders Involving NKCCs” (University of Pittsburgh - Of the Commonwealth System of …, priority 2018, published 2026).

System: GL26 and SB28-GFP cells
Test: Rubidium uptake assay (Rb+ influx)
Type: cell-based, mouse
Procedure: FIGS. 4A-4B: Rb^+ influx was measured in GL26 and SB28-GFP cells in either isotonic (10 min) or hypertonic (5 min) solutions using ICR 8000 machine. (4A) Cells were exposed to isotonic or hypertonic solutions with BMT (10 μM) or STS66 (10 μM). (4B) Cells were exposed to isotonic or hypertonic solutions with different concentrations of STS66 (0 to 40 μM). Results are expressed as means±SEM from four independent experiments. **P<0.01, ***P<0.001, ****P<0.0001.
FIG. 5: GL26 cells and SB28-GFP cells were first exposed to BMT (10 μM) and different concentration of STS66 (10, 20 and 40 μM) for 48 h, and Rb^+ influx was measured in either isotonic (10 min) or hypertonic (5 min) solutions using ICR 8000 machine. Results are expressed as means±SEM from four independent experiments. *P<0.05, **P<0.01, ***P<0.001, ****P<0.0001.
GL26 and SB28-GFP cells were seeded in 24-well plates and the rubidium uptake assay was performed on cells that were 60% confluent. TMZ was added to cells for 48 hr incubation. The medium was then removed from the wells and washed with wash buffer (Rb^+ free). After wash buffer was aspirated, isotonic and hypertonic solutions (contain Rb^+) with BMT were added, and cells were incubated at 37° C. for 5 min. […] The Rb^+ concentration was measured using an automated atomic absorption spectrophotometer (Ion Channel Reader, ICR-8000; Aurora Biomed, Vancouver, Canada).

In the case of `CCCCNc1cc(CNCC(F)(F)F)cc(S(N)(=O)=O)c1Oc1ccccc1` [STS66, 3-(Butylamino)-2-phenoxy-5-[(2,2,2-trifluoroethylamino)methyl]benzenesulfonamide], the “Rb+ influx inhibition, 48 h incubation” value (drugs incubated for 48 h, BMT 10 μM, STS66 10, 20 and 40 μM) was “inhibited the Rb^+ influx better than BMT” and the “Rb+ influx inhibition, short incubation” value (drugs incubated for short time: isotonic (10 min) or hypertonic (5 min) solutions, STS66 0 to 40 μM) was “does not inhibit Rb^+ influx”.
